Entries after “also recorded” stand apart in the source; their conditions may differ.
How the values were obtained:
[1] = Repeat dose 21-day toxicity study in monkeys (Part 2); conditions: monkey; 21-day infusion, 50 mg/kg/day
[2] = tested on: MDA-MB435-To.1 human Taxol-resistant breast adenocarcinoma cells; assay: Taxol-resistant breast adenocarcinoma MDA-MB435-To.1 growth in SCID mice; assay type: in vivo
Experimental: MDA-MB435-To.1 human Taxol-resistant breast adenocarcinoma cells (4×10^6 cells in 100 μl of PBS) were injected into the fat pad (inside of right leg) of 6-7 weeks old female SCD mice. After the size of tumor reached an approximate volume of 100 mm^3, 20 days post tumor cell injection, SEQ ID NO:1 was administered by bolus infusion into the tail vein every other day at 10 mg/kg 15 times. Control animals received saline alone for the same period. Antitumor effect of SEQ ID NO:1 was further compared to that of Cisplatin or Taxol alone (FIG. 15A). Cisplatin was administered intravenously once a week for four weeks at a dose of 4 mg/kg. Taxol was administered intravenously once a week for four weeks at a dose of 20 mg/kg. Antitumor activities were estimated by the inhibition of tumor volume, which was measured with caliper (FIG. 15B). Each point represents mean tumor volume calculated from 9-10 animals per experimental group. […] As expected, treatment with Taxol during the same period was ineffective against Taxol-resistant tumor.
MDA-MB435-To.1 human Taxol-resistant breast adenocarcinoma cells (4×10^6 cells in 100 μl of PBS) were injected into the fat pad (inside of right leg) of 6-7 weeks old female CB-17 SCID mice. After the size of tumor reached an approximate volume of 100 mm^3, 17 days post tumor cell injection, SEQ ID NO:1 was administered by bolus infusion into the tail vein every other day at 10 mg/kg. Control animals received saline alone for the same period. Antitumor effect of SEQ ID NO:1 was compared to that of Cisplatin alone and in combination. Cisplatin was administered intravenously once a week for four weeks at a dose of 4 mg/kg. Antitumor activities were estimated by the inhibition of tumor volume, which was measured with caliper (FIG. 15B). Each point represents mean tumor volume calculated from 10 animals per experimental group. At the end of the study the animals were sacrificed and tumors weighed (FIG. 15C).

[3] = tested on: PC-3 human prostatic cancer cells; assay: PC-3 prostate tumor growth in SCID mice; assay type: in vivo; conditions: 10 mg/kg i.v. every other day, 36 days, vs saline
Experimental: PC-3 human prostatic cancer cells (1×10^7 cells in 100 μl of PBS) were subcutaneously injected into the right flank of 6-7 week old male SCID mice. After the tumor size reached an approximate volume of 50 mm^3, 14 days post tumor cell injection, SEQ ID NO:1 was administered by bolus infusion into the tail vein every other day at 10 mg/kg. Control animals received saline alone for the same period. Treatments lasted for 36 days thereafter. Antitumor activities were estimated by the inhibition of tumor volume, which was measured with a caliper on six different occasions over 36-day period. Each point represents mean tumor volume calculated from 5 animals per experimental group.

[4] = tested on: human Burkitt's lymphoma (Raji) cells; assay: Survival of SCID mice bearing human Burkitt's lymphoma (Raji); assay type: in vivo
Experimental: In vivo studies were conducted to assess the therapeutic potential of SEQ ID NO:1 in the treatment of lymphoma. Viable human Burkitt's lymphoma (Raji) cells (5×10^6) collected from subconfluent logarithmically growing cultures were injected i.v. via the tail vein of each animal and disease was allowed to establish for 2 days. SEQ ID NO:1 in normal saline was administered by tail vein injections every second day at a dose of 10 mg/kg. Control animals received saline alone, without oligonucleotide. Treatment with SEQ ID NO:1 was stopped at day 42. The mice in both groups (n−10) were sacrificed at, day 73. Antitumor effects of SEQ ID NO:1 treatment were assessed by the examination of survival of mice (FIG. 18A). All mice died as a consequence of tumor progression within 23 days when left untreated. All SEQ ID NO:1 treated animals, on the other hand, survived beyond day 73 except one mouse which died at day 35. In an independent experiment, mice survived 140 days, even when treatment was stopped at day 70 (FIG. 18B). This experiment also included treatment with a control oligonucleotide, SEQ ID NO:1-SCR (scrambled version of SEQ ID NO:1). The saline and control ODN mice all died from disease progression by day 27. At day 40, the SEQ ID NO:1-treated mice continued treatment every three days until stopping the treatment at day 59. All mice survived to the end of the experimental period.

[5] = 14-day continuous intravenous infusion toxicity study in the rat; assay type: in vivo, Sprague Dawley rats
[6] = tested on: HT-29 human colon cancer cells; assay: HT-29 colon tumor growth in CD-1 nude mice; assay type: in vivo; conditions: for tumor weight / tumor growth: SEQ ID NO:1 10 mg/kg every other day
Experimental: A. HT-29 human colon cancer cells (3×10^6 cells in 100 μl of PBS) were subcutaneously injected into the right flank of 6-7 weeks old female CD-1 nude mice. After the size of tumor reached an approximate volume of 50 mm^3, 4 days post tumor cell injection, SEQ ID NO:1 was administered by bolus infusion into the tail vein every other day at 10 mg/kg. Control animals received saline alone for the same period. Antitumor effect of SEQ ID NO:1 was further compared to that of mitomycin C alone or that of SEQ ID NO:1 in combination with mitomycin C. Mitomycin C was administered intravenously at days 4, 11 and 18 with a dose of 3.5 mg/kg/week, one hour after the treatments with SEQ ID NO:1. All treatments were stopped at day 22. A day after the last treatment, tumors were excised from the animals and their weights were measured (FIG. 13A). […] The delay in tumor growth achieved with SEQ.
B. HT-29 human colon cancer cells (3×10^6 cells in 100 μl of PBS) were subcutaneously injected into the right flank of 5-6 week old female CD-1 nude mice. After the size of tumor reached an approximate volume of 100 mm^3, 7 days post tumor cell injection, SEQ ID NO:1 was administered by bolus infusion into the tail vein every other day at 10 mg/kg. Control animals received saline alone for the same period. Antitumor effect of SEQ ID NO:1 was further compared to that of CPT-11 alone or that of SEQ ID NO:1 in combination with CPT-11. CPT-11 was administered intraperitoneally for 5 days in a row from day 7-12 with a dose of 20 mg/kg in 100 μl saline. All treatments were stopped at day 32. A day after the last treatment, tumors were excised from the animals and their weights were measured (FIG. 13B).

For “5′-CTCTAGCGTCTTAAAGCCGA-3′ (CTCTAGCGTCTTAAAGCCGA; chemistry not given here) [SEQ ID NO:1]”, the mortality [1] was “one high dose animal was sacrificed on Day 19 for ethical reasons”, the “delay in tumor growth compared with Cisplatin” value ([2]; first experiment, Cisplatin 4 mg/kg weekly as positive control) was “superior to the inhibitory effects observed with Cisplatin” and the “tumor weight / tumor growth” value ([2]; first experiment, start 20 days post injection, SEQ ID NO:1 10 mg/kg 15 times, Cisplatin 4 mg/kg, Taxol 20 mg/kg weekly for four weeks) was “significant reduction of tumor weight”. For the same substance, the “delay in tumor growth compared with Cisplatin” value ([2]; second experiment, CB-17 SCID mice) was “superior to the inhibitory effects observed with Cisplatin”, the “tumor weight / tumor growth” value ([2]; second experiment, CB-17 SCID mice, start 17 days post injection, SEQ ID NO:1 10 mg/kg every other day, Cisplatin 4 mg/kg weekly) was “significant reduction of tumor weight” and the “inhibition of tumor volume” value [3] was “strong inhibitory effects”. The survival of mice ([4]; FIG. 18A, 10 mg/kg i.v. every second day, stopped at day 42, one mouse died at day 35, untreated died within 23 days) was over 73 days, the survival of mice ([4]; independent experiment FIG. 18B, saline mice died by day 27) was at least 140 days and the “sex effect on adverse effects” value [5] was “more pronounced in males than females”. The “treatment-related effects in the high dose group” value ([5]; 50 mg/kg/day (reduced to 40 mg/kg/day), 14-day infusion) was “severe adverse clinical signs and mortality; also recorded: high morbidity and mortality, reduced body weights and reduced food consumption”, the clinical pathology results ([5]; 2, 10, 50 mg/kg/day, 14 days) was “dose-dependent anemia, thrombocytopenia, coagulopathic selectivity for APTT, and liver and kidney toxicity in both sexes” and the pathological findings ([5]; 2, 10, 50 mg/kg/day, 14 days) was “major treatment-related changes in numerous tissues and organs of the high dose animals, in most tissues and organs of the mid dose animals; and sporadically in the evaluated tissues and organs of the low dose animals”. The toxicity ([5]; continuously for 14 days at 10 mg/kg/day (59 mg/m^2/day)) was “Severe toxicity”, the “delay in tumor growth compared with mitomycin C alone” value ([6]; FIG. 13A) was “superior to the inhibitory effects observed with mitomycin C alone” and the “tumor weight / tumor growth” value ([6]; FIG. 13A, mitomycin C 3.5 mg/kg/week i.v., stopped day 22) was “significant delay of tumor growth”. For the same substance, the “tumor weight / tumor growth” value ([6]; FIG. 13B, CPT-11 20 mg/kg i.p. 5 days, stopped day 32) was “significant delay of tumor growth”.

Source: patent publication US20070274947A1, “Antisense Oligonucleotides Directed to Ribonucleotide Reductase R1 and Uses Thereof in the Treatment of Cancer” (priority 2003, published 2007)
